Laboratory results published in patent US9528993B2, “Agents and methods related to screening for resistance to DR5 and reducing resistance to DR5 agonists” (The UAB Research Foundation, priority 2005, dated 2016).
{Fl} = fluorescein label

Legend:
[1] = test system: caspase activation and PARP cleavage in MDA231 cells; test: Western blot of caspase cascade activation in MDA231 cells; format: cell-based, human; conditions: MDA-231 resistant cells, single agent alone at 4 hours (1,000 ng/ml TRA-8 or 1 μM Adriamycin)
Description: Tumor cells (3×10^6) were washed twice with cold PBS and lysed with 300 μl lysis buffer containing 10 mM Tris-HCl (pH 7.6), 150 mM NaCl, 0.5 mM EDTA, 1 mM EGTA, 0.1% SDS, 1 mM sodium orthovanadate, and a mixture of protease inhibitors (1 mM phenylmethylsulfonyl fluoride, 1 μg/ml pepstatin A, 2 μg/ml aprotinin). Lysates were sonicated for 10 seconds, and centrifuged for 20 minutes at 12,000 g. The cell lysates with equal amount of total proteins were boiled for 5 minutes with SDS-PAGE sample buffer. Total cell lysates were separated in 8%, 10%, or 12% SDS-PAGE, and electrophoretically transferred to nitrocellulose membrane. The blots were blocked with 5% nonfat dry milk in TBST buffer (20 mM Tris-HCl (pH 7.4), 500 mM NaCl, and 0.1% Tween 20) and incubated with primary antibody in blocking buffer at 4° C. overnight. The blots were washed three times with TBST and probed with HRP-conjugated secondary antibodies for one hour at room temperature. After washing four times with TBST, the probed proteins were visualized using the ECL Western blotting detection system (Amersham Biosciences, Piscataway, N.J.) according to the manufacturer's instructions.

[2] = test system: human breast cancer cell line, MDA-231; test: Cytotoxicity analysis (ATPLITE cell viability), MDA-231; format: cell-based; conditions: for TRA-8-mediated apoptosis of induced resistant cells in presence of chemotherapeutic agent: MDA-231 resistant cells, 0.1 μM taxol, 1 μM Adriamycin, 100 μM cisplatin or 5 μM BisVIII
Description: (§1) Cells (1,000 cells per well) were seeded into 96-well plate in triplicate with eight concentrations (double serial dilutions from 1000 ng/ml) of TRA-8, 2E12, or TRAIL. Cell viability was determined after overnight culture using ATPLITE assay according to the manufacture's instructions (Packard Instruments, Meriden, Conn.). The results are presented as the precentage of viable cells in treated wells compared to medium control wells.
(§2) Cells (5×10^5/ml) were incubated with a starting dose of 1 ng/ml TRA-8 for two days. Cells were split with fresh medium and incubated with a double dose of TRA-8 every two days until TRA-8 dose reached 2,000 ng/ml. At each treatment cycle, the cell viability of non-induced (parental) and induced cells treated with an inducing dose of TRA-8 was determined by ATPLITE assay.

[3] = test system: human ovarian cancer cell line, UL-3C; test: Cytotoxicity analysis (ATPLITE cell viability), UL-3C; format: cell-based; conditions: for TRA-8-mediated apoptosis of induced resistant cells in presence of chemotherapeutic agent: UL-3C resistant cells, 0.1 μM taxol, 1 μM Adriamycin, 100 μM cisplatin or 5 μM BisVIII
Description: as §1, §2

[4] = test system: GSK-3; conditions: cited from earlier work
[5] = test system: Cdk1/B; conditions: cited from earlier work
[6] = target: Cdk5/p35 (Homo sapiens, UniProt Q00535); conditions: cited from earlier work
[7] = test system: GSK-3; conditions: cited from earlier work; remark: listed apart in the source
[8] = test system: DDX3 in panel of tumor cells; test: DDX3 expression in panel of tumor cells after DDX3 sRNAi oligo (Western blot); format: cell-based; conditions: 48 hours after transfection
Text: They were then cloned into the BLOCK-iT U6 entry vector. The shRNA is driven by the U6 promoter and can be transiently expressed in most dividing or nondividing mammalian cell types. Resistant cells were transfected with RNAi used LIPOFECTAMINE 2000 (Invitrogen) for the RNAi response. […] Once decreased DDX3 expression was achieved, the siRNA oligo was synthesized (Target sequence: […] (SEQ ID NO:27): Sense RNA 5′-Fl-[…] (Fl-SEQ ID NO:27) (Fl=fluorescein); Anti-senseRNA 5′-[…]-3′ (SEQ ID NO:28), and RNAi control oligo (RI-010-DP) was purchased from Molecula (Columbia, Md.).

[9] = test system: panel of tumor cells; test: TRA-8-induced apoptosis in panel of tumor cells after DDX3 sRNAi oligo (ATPLite); format: cell-based; conditions: including some spontaneous resistant cells; various concentrations of TRA-8 overnight
Description: Cytotoxicity analysis of tumor cell susceptibility to TRA-8, 2E12, and TRAIL-mediated apoptosis. Cells (1,000 cells per well) were seeded into 96-well plates in triplicate with eight concentrations (double serial dilutions from 1000 ng/ml) of TRA-8, 2E12, or TRAIL. Cell viability was determined after overnight culture using an ATPLITE™ assay according to the manufacturer's instructions (Packard Instruments, Meriden, Conn.). The results are presented as the precentage of viable cells in treated wells compared to medium control wells.
They were then cloned into the BLOCK-iT U6 entry vector. The shRNA is driven by the U6 promoter and can be transiently expressed in most dividing or nondividing mammalian cell types. Resistant cells were transfected with RNAi used LIPOFECTAMINE 2000 (Invitrogen) for the RNAi response. The decreased DDX3 expression was determined by Western blot analysis using anti-DDX3 antibody 36 hours after transfection. Once decreased DDX3 expression was achieved, the siRNA oligo was synthesized (Target sequence: […] (SEQ ID NO:27): Sense RNA 5′-Fl-[…] (Fl-SEQ ID NO:27) (Fl=fluorescein); Anti-senseRNA 5′-[…]-3′ (SEQ ID NO:28), and RNAi control oligo (RI-010-DP) was purchased from Molecula (Columbia, Md.).

Sequence of Cdk5/p35 (Q00535 whole entry, species assumed): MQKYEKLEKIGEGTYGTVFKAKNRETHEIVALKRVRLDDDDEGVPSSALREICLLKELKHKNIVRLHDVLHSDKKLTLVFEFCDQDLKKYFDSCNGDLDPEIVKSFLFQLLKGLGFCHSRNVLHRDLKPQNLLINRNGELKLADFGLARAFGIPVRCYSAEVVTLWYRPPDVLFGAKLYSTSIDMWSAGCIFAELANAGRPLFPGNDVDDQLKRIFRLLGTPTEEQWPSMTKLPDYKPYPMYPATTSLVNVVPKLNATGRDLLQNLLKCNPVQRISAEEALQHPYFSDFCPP
Sequence of Cdk5/p35 (Q15078 whole entry partner, species assumed): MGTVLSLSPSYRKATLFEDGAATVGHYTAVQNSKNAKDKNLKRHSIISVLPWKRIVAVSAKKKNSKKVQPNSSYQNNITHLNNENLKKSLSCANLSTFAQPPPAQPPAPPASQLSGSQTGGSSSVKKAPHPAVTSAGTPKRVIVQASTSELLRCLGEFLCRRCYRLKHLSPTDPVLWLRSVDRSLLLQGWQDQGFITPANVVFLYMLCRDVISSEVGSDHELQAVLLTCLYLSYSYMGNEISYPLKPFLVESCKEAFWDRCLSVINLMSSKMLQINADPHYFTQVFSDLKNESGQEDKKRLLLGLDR

## COc1cccc2c1C(=O)c1c(O)c3c(c(O)c1C2=O)C[C@@](O)(C(=O)CO)C[C@@H]3O[C@H]1C[C@H](N)[C@H](O)[C@H](C)O1 [Adriamycin]
[1]
  activation of caspases 2, 3, 8, 9: did not induce any significant activation
[2]
  TRA-8-mediated apoptosis of induced resistant cells in presence of chemotherapeutic agent: TRA-8 dose-dependent response was restored
[3]
  TRA-8-mediated apoptosis of induced resistant cells in presence of chemotherapeutic agent: TRA-8 dose-dependent response was restored

## CCCCc1c(-c2ccc(OC)cc2)[nH]c2nccnc12 [Aloisine, 7-n-Butyl-6-(4-methoxyphenyl)[5H]pyrrolo[2,3-b]pyrazine]
[4]
  IC50: 920 nM
[5]
  IC50: 700 nM
[6]
  IC50: 1500 nM

## [Be+2] [Beryllium ions]
[4]
  inhibition of GSK-3: micromolar range

## Cn1cc(C2=C(c3cn(CCCN)c4ccccc34)C(=O)NC2=O)c2ccccc21 [Bisindolymaleimide VIII]
[2]
  TRA-8-mediated apoptosis of induced resistant cells in presence of chemotherapeutic agent: TRA-8 dose-dependent response was restored
[3]
  TRA-8-mediated apoptosis of induced resistant cells in presence of chemotherapeutic agent: TRA-8 dose-dependent response was restored

## N.N.[Cl][Pt][Cl] [Cisplatin]
[2]
  TRA-8-mediated apoptosis of induced resistant cells in presence of chemotherapeutic agent: TRA-8 dose-dependent response was restored
[3]
  TRA-8-mediated apoptosis of induced resistant cells in presence of chemotherapeutic agent: TRA-8 dose-dependent response was restored

## CC(C)NCC(O)c1ccc(O)c(O)c1 (stereo not shown) [Isoproterenol]
[7]
  decrease of GSK-3 activity: approximately 50%

## Cn1cc(C2=C(c3ccc(Cl)cc3Cl)C(=O)NC2=O)c2ccccc21 [SB216763]
[4]
  inhibition of GSK-3: potent

## CC(=O)O[C@H]1C(=O)[C@@]2(C)[C@H]([C@H](OC(=O)c3ccccc3)[C@]3(O)C[C@H](OC(=O)[C@H](O)[C@@H](NC(=O)c4ccccc4)c4ccccc4)C(C)=C1C3(C)C)[C@]1(OC(C)=O)CO[C@@H]1C[C@@H]2O [Taxol]
[2]
  TRA-8-mediated apoptosis of induced resistant cells in presence of chemotherapeutic agent: TRA-8 dose-dependent response was restored
[3]
  TRA-8-mediated apoptosis of induced resistant cells in presence of chemotherapeutic agent: TRA-8 dose-dependent response was restored

## DDX3 RNAi: synthesized siRNA oligo, target sequence GGAGAAATTATCATGGGAAAC (SEQ ID NO:27), antisense SEQ ID NO:28 (sense GGAGAAAUUAUCAUGGGAAAC; antisense GUUUCCCAUGAUAAUUUCUCC; sense: RNA, 5' {Fl}, backbone not given here; antisense: RNA, backbone not given here)
[8]
  amount of endogenous DDX3: reduced the amount of endogenous DDX3
[9]
  TRA-8-induced apoptosis: enhanced the TRA8-induced apoptosis

## TRAIL: Recombinant soluble TRAIL purchased from Alexis Biochemicals
[2]; MDA-231R cells vs parental
  susceptibility of TRA-8 resistant cells to induced apoptosis: still susceptible
[2]; parental MDA-231 cells
  susceptibility to apoptosis, in vitro cytotoxicity assay: susceptible to apoptosis
[3]; UL-3CR cells vs parental
  susceptibility of TRA-8 resistant cells to induced apoptosis: still susceptible
[3]; parental UL-3C cells
  susceptibility to apoptosis, in vitro cytotoxicity assay: susceptible to apoptosis

## insulin: comparator for decrease of GSK-3 activity
[7]
  decrease of GSK-3 activity: approximately 50%
